System: femoral artery thrombosis
Test: Canine femoral artery thrombosis model
Type: in vivo
Settings: Compound A administered in combination with aspirin (pre-treatment) versus either agent alone; dog; FIG. 1; not statistically significant
Source text: Canine Femoral Artery Thrombosis Model—Compound A and Aspirin Compound A as defined above was used in combination with aspirin in a dog model of femoral artery thrombosis to determine whether combination of a P2T-receptor antagonist and pre-treatment with aspirin would have an improved profile when compared to the effect of either agent used alone.

CCCSc1nc(N[C@@H]2C[C@H]2c2ccc(F)c(F)c2)c2nnn([C@@H]3C[C@H](OCCO)[C@@H](O)[C@H]3O)c2n1 [Compound A]
anti-thrombotic potency (dose (ID50) required to produce 50% inhibition of thrombosis): trend for an increased anti-thrombotic potency
